Experimental data reported in patent US8129399B2, “Aminopyrimidines useful as kinase inhibitors” (Vertex Pharmaceuticals Incorporated, priority 2005, dated 2012).
Where two headings read alike, the source gives them in different places.

Experiments:
Format in all cases: biochemical
Aurora-2 (Aurora A) = target: T1, Aurora-2 (Aurora A) (Homo sapiens, UniProt O14965); test: Aurora-2 (Aurora A) inhibition assay, coupled enzyme
T1 sequence (O14965 1-403): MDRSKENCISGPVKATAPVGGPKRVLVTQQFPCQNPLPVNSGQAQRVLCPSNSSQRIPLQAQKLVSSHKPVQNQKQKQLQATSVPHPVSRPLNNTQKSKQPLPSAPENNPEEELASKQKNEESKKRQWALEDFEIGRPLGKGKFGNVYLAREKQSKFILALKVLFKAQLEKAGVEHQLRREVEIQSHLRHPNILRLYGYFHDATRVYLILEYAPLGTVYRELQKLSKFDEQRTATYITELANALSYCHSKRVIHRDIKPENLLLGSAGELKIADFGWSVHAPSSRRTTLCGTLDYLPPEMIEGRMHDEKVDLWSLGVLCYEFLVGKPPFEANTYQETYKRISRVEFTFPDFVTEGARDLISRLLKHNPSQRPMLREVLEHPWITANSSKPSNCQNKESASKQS
Description: Assays were carried out in a mixture of 100 mM Hepes (pH7.5), 10 mM MgCl2, 1 mM DTT, 25 mM NaCl, 2.5 mM phosphoenolpyruvate, 300 μM NADH, 30 μg/ml pyruvate kinase and 10 μg/ml lactate dehydrogenase. […] Assays were carried out at 30° C. and in the presence of 40 nM Aurora-2.
An assay stock buffer solution was prepared containing all of the reagents listed above, with the exception of Aurora-2 and the test compound of interest. […] The plate was preincubated for 10 minutes at 30° C. and the reaction initiated by addition of 10 μl of Aurora-2. Initial reaction rates were determined with a Molecular Devices SpectraMax Plus plate reader over a 10 minute time course. IC50 and Ki data were calculated from non-linear regression analysis using the Prism software package (GraphPad Prism version 3.0cx for Macintosh, GraphPad Software, San Diego Calif., USA).

JAK3 = target: T2, JAK3 (Homo sapiens, UniProt P52333); test: JAK3 inhibition assay
T2 sequence (P52333 1-1124): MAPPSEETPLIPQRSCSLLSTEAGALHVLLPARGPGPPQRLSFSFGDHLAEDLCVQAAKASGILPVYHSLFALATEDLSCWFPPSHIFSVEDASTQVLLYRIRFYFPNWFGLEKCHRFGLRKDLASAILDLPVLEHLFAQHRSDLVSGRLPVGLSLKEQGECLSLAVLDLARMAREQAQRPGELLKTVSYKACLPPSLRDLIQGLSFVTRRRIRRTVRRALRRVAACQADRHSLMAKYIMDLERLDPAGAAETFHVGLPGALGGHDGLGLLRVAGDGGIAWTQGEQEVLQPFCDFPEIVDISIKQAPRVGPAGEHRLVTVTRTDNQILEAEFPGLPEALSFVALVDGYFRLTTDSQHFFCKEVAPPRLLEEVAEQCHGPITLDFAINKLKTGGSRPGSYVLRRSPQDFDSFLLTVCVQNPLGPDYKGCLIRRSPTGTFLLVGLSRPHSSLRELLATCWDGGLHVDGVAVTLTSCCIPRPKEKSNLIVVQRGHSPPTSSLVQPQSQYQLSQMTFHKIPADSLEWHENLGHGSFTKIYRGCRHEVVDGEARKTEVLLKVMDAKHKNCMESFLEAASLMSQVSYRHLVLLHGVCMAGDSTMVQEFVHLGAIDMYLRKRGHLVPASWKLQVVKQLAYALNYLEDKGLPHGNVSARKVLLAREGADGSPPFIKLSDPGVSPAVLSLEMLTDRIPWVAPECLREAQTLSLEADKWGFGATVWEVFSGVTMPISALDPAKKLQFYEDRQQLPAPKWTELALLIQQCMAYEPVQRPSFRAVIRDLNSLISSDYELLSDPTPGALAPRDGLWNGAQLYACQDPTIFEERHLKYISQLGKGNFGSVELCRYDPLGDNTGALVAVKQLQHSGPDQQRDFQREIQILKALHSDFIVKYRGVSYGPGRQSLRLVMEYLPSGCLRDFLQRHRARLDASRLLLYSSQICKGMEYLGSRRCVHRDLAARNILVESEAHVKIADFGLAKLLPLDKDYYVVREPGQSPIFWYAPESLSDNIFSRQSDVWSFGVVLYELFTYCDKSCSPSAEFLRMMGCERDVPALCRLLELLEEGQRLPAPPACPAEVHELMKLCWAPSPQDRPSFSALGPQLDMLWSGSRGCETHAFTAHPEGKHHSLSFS
Description: Reactions were carried out in a kinase buffer containing 100 mM HEPES (pH 7.4), 1 mM DTT, 10 mM MgCl2, 25 mM NaCl, and 0.01% BSA. Substrate concentrations in the assay were 5 μM ATP (200 uCi/μmole ATP) and 1 μM poly(Glu)4Tyr. Reactions were carried out at 25° C. and 1 nM JAK3.
To each well of a 96 well polycarbonate plate was added 1.5 μl of a candidate JAK3 inhibitor along with 50 μl of kinase buffer containing 2 μM poly(Glu)4Tyr and 10 μM ATP. This was then mixed and 50 μl of kinase buffer containing 2 nM JAK3 enzyme was added to start the reaction. After 20 minutes at room temperature (25 C), the reaction was stopped with 50 μl of 20% trichloroacetic acid (TCA) that also contains 0.4 mM ATP. The entire contents of each well were then transferred to a 96 well glass fiber filter plate using a TomTek Cell Harvester. After washing, 60 μl of scintillation fluid was added and ^33P incorporation detected on a Perkin Elmer TopCount.

Arg (Abl-2) = Arg (Abl-2) (Homo sapiens, UniProt P42684); test: Arg (Abl-2) inhibition screen; details: ATP at or close to Km
Source text: (§1) Compound(s) were screened for their ability to inhibit Arg (Abl-2), FGFR1, MLK1, Tie2, and TrkA using screening methods known to one of ordinary skill in the art. All of the above enzymes were screened with ATP concentrations at or close to the Km for ATP.

FGFR1 = FGFR1 (Homo sapiens, UniProt P11362); test: FGFR1 inhibition screen; details: ATP at or close to Km
Source text: as §1

[1] = target: N-terminally truncated (Δ 27) Abl kinase (Homo sapiens, UniProt P00519); test: Abl kinase activity inhibition assay, coupled enzyme
Description: Reactions were carried out in a solution containing 100 mM HEPES (pH 7.5), 10 mM MgCl2, 25 mM NaCl, 300 μM NADH, 1 mM DTT and 3% DMSO. […] Final concentrations of the components of the coupled enzyme system were 2.5 mM phosphoenolpyruvate, 200 μM NADH, 60 μg/ml pyruvate kinase and 20 μg/ml lactate dehydrogenase.
An assay stock buffer solution was prepared containing all of the reagents listed above with the exception of ATP and the test compound of interest. […] Rates of reaction were obtained using a Molecular Devices Spectramax plate reader (Sunnyvale, Calif.) over 10 min at 30° C. The Ki values were determined from the residual rate data as a function of inhibitor concentration using nonlinear regression (Prism 3.0, Graphpad Software, San Diego, Calif.).

[2] = 400 μM ATP, 40 nM Aurora-2, read-out: Aurora A Ki
[3] = Table 6, introduced as Ki values

Chain of FGFR1 (P11362 22-822, species assumed): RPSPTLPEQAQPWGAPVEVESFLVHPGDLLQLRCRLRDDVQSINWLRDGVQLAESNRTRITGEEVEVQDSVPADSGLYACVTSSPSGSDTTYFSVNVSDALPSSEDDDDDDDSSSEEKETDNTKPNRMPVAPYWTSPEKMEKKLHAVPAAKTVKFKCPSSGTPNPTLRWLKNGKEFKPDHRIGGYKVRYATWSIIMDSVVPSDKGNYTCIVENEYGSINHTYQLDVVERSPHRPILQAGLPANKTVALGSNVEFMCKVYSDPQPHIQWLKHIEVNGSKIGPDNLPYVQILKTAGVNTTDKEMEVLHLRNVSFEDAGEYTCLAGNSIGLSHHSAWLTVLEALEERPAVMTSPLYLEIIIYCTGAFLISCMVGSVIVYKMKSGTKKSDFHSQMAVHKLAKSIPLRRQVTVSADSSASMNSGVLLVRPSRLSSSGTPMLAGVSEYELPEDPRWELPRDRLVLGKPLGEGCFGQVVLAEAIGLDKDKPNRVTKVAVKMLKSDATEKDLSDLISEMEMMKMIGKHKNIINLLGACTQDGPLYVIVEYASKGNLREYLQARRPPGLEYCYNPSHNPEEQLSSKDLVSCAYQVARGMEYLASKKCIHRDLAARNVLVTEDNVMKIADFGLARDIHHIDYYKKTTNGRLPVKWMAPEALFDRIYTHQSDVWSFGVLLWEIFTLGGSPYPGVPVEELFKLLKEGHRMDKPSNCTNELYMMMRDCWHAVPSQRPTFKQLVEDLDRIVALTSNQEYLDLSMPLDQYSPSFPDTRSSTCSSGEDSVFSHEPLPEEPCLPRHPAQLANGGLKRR
Chain of N-terminally truncated (Δ 27) Abl kinase (P00519 28-1130 limits assumed, stated change not applied): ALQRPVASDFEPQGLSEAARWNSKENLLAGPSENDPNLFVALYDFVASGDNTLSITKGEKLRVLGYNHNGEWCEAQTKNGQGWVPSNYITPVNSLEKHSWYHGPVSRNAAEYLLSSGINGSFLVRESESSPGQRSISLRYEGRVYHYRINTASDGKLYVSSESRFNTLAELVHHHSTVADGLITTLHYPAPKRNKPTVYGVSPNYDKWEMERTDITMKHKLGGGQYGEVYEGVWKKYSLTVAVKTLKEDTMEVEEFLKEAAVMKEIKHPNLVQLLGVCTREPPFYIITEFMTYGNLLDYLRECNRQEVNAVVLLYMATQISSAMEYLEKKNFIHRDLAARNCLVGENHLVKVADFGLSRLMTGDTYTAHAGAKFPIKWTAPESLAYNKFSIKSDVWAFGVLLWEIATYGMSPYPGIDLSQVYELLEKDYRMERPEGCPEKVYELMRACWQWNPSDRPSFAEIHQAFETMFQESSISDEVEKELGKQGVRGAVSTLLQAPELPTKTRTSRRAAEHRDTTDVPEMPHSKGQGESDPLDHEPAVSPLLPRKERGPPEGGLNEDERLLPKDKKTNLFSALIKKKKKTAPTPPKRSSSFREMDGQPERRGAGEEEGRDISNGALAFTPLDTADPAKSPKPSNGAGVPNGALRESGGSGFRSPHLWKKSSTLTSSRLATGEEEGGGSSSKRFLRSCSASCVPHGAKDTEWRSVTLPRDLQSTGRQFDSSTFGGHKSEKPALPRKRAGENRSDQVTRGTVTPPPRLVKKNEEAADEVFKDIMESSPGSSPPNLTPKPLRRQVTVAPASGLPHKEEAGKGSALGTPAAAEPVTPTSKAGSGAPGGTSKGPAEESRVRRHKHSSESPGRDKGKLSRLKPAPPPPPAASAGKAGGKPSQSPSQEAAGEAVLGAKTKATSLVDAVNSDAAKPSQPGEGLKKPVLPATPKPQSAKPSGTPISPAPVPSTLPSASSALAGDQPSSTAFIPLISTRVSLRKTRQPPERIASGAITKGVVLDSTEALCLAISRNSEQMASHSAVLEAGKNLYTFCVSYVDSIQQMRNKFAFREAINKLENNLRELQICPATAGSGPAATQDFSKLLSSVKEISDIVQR
Chain of Arg (Abl-2) (P42684 whole entry, species assumed): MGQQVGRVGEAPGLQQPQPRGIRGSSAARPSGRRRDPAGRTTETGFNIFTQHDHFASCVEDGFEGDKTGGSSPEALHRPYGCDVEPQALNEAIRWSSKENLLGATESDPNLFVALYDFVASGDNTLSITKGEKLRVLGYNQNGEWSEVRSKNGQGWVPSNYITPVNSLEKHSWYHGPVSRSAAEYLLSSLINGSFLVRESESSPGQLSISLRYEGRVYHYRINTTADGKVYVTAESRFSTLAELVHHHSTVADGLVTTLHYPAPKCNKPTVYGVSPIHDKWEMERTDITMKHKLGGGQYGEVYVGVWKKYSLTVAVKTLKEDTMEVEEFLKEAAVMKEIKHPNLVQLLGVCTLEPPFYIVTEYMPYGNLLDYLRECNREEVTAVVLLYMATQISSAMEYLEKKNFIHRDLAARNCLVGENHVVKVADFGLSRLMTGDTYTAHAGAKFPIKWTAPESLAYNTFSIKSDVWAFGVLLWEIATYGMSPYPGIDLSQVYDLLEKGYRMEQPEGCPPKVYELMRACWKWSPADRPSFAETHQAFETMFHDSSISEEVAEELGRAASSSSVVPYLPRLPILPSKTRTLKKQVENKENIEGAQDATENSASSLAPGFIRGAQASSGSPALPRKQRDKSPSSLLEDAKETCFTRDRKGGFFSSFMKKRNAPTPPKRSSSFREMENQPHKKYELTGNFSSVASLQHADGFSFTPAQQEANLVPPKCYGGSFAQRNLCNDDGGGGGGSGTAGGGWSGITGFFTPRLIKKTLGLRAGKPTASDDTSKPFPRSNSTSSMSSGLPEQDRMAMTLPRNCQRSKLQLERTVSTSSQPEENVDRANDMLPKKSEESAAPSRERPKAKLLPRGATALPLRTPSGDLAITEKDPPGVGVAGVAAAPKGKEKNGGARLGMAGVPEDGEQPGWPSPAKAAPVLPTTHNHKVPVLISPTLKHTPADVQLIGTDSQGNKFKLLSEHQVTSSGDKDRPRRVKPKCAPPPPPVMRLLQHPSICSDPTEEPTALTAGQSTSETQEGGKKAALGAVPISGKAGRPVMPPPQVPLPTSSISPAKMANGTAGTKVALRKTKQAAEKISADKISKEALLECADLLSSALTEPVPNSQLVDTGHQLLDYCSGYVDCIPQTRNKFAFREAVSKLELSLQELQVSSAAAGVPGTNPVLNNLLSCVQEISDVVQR

| Ki [1] [nM] | IC50 (Arg (Abl-2); [3]) [nM] | IC50 (FGFR1; [3]) [nM] | SMILES | Ki (Aurora-2 (Aurora A); [2]) [nM] | Ki (JAK3) [nM] | Ki (Aurora-2 (Aurora A)) [nM] | IC50 (Arg (Abl-2); Table 5) [nM] | IC50 (FGFR1; Table 5) [nM] |
| --- | --- | --- | --- | --- | --- | --- | --- | --- |
|  |  |  | Cc1cc(Nc2cc(N3CC(F)(C4CC4)C3)nc(Sc3ccc(NC(=O)C4CC4(F)F)cc3)n2)[nH]n1 (stereo not drawn) [Compound I-20] | 0.77 | 110 |  |  |  |
|  |  |  | CCC(=O)Nc1ccc(Sc2nc(Nc3cc(C)n[nH]3)cc(N3CC(O)(C(C)C)C3)n2)cc1 [Compound I-5] | 1.2 | 100 |  |  |  |
|  |  |  | Cc1cc(Nc2cc(N3CC(F)(C4CC4)C3)nc(Sc3ccc(NC(=O)CC4CC4)cc3)n2)[nH]n1 [Compound I-19] |  | 620 | 0.44 | 130 | 35 |
| 88 |  |  | Cc1cc(Nc2cc(N3CC(F)(C4CC4)C3)nc(Sc3ccc(NC(=O)C4CC4)cc3)n2)n[nH]1 [Compound I-13] | 1.1 | 290 |  |  |  |
|  |  |  | Cc1cc(Nc2cc(N3CC(O)(C4CC4)C3)nc(Sc3ccc(NC(=O)C4CC4)cc3F)n2)[nH]n1 [Compound I-11, N-(4-((4-(3-methyl-1H-pyrazol-5-ylamino)-6-(3-cyclopropyl-3-hydroxyazetidin-1-yl)pyrimidin-2-yl)sulfanyl)-3-fluorophenyl)cyclopropanecarboxamide] | 0.41 | 56 |  |  |  |
| 30 |  |  | Cc1cc(Nc2cc(N3CC(O)(C4CC4)C3)nc(Sc3ccc(NC(=O)C4CC4)cc3)n2)n[nH]1 [Compound I-8] | 0.87 | 140 |  |  |  |
|  |  |  | CCC(=O)Nc1ccc(Sc2nc(Nc3cc(C)n[nH]3)cc(N3CC(O)(C(C)CC)C3)n2)cc1 (stereo not drawn) [Compound I-6] |  | 190 | 0.77 |  |  |
|  |  |  | Cc1cc(Nc2cc(N3CC(O)(C4CC4)C3)nc(Sc3ccc(NC(=O)C4CC4(F)F)cc3)n2)[nH]n1 (stereo not drawn) [Compound I-12] | 0.35 | 28 |  |  |  |
|  |  |  | O=C(Nc1ccc(Sc2nc(Nc3cc(C4CC4)[nH]n3)cc(N3CC(O)(C4CC4)C3)n2)cc1)C1CC1 [Compound I-10] |  | 51 | 0.42 |  |  |
| 23 | 3.3 | 65 | Cc1cc(Nc2cc(N3CC(F)(C4CC4)C3)nc(Sc3ccc(NC(=O)CC(F)(F)F)cc3)n2)[nH]n1 [Compound I-14, N-(4-(4-(3-methyl-1H-pyrazol-5-ylamino)-6-(3-cyclopropyl-3-fluoroazetidin-1-yl)pyrimidin-2-ylthio)phenyl)-3,3,3-trifluoropropanamide] | 0.35 | 77 |  | 14 | 121 |
|  |  |  | Cc1cc(Nc2cc(N3CC(O)(C4CC4)C3)nc(Sc3ccc(NC(=O)C4CCCC4)cc3)n2)[nH]n1 [Compound I-9, N-(4-((4-(3-methyl-1H-pyrazol-5-ylamino)-6-(3-cyclopropyl-3-hydroxyazetidin-1-yl)pyrimidin-2-yl)sulfanyl)phenyl)cyclopentanecarboxamide] | 0.43 | 150 |  |  |  |
|  |  |  | Cc1cc(Nc2cc(N3CC(F)(C4CC4)C3)nc(Sc3ccc(NC(=O)C4CC4)cc3F)n2)n[nH]1 [Compound I-18] |  | 220 | 0.35 | 53 | 22 |
|  |  |  | Cc1cc(Nc2cc(N3CC(F)(C4CC4)C3)nc(Sc3ccc(NC(=O)CC(F)(F)F)nc3)n2)[nH]n1 [Compound I-21, N-(5-(4-(3-methyl-1H-pyrazol-5-ylamino)-6-(3-cyclopropyl-3-fluoroazetidin-1-yl)pyrimidin-2-ylthio)pyridin-2-yl)-3,3,3-trifluoropropanamide] |  | 100 | 0.44 |  |  |
|  |  |  | CCC(=O)Nc1ccc(Sc2nc(Nc3cc(C4CC4)[nH]n3)cc(N3CC(O)(C4CC4)C3)n2)cc1 [Compound I-7] |  | 37 | 0.36 |  |  |

| SMILES | Ki [1] [nM] | IC50 (Arg (Abl-2); [3]) [nM] | IC50 (FGFR1; [3]) [nM] | Ki (Aurora-2 (Aurora A); [2]) [nM] | Ki (JAK3) [nM] | Ki (Aurora-2 (Aurora A)) [nM] | IC50 (Arg (Abl-2); Table 5) [nM] | IC50 (FGFR1; Table 5) [nM] |
| --- | --- | --- | --- | --- | --- | --- | --- | --- |
| CCC(=O)Nc1ccc(Sc2nc(Nc3cc(C)n[nH]3)cc(N3CC(O)(C4CC4)C3)n2)cc1 [Compound I-2] | 64 |  |  | 0.39 | 160 |  |  |  |
| CCC(=O)Nc1ccc(Sc2nc(Nc3cc(C)n[nH]3)cc(N3CC(O)(C4CCCC4)C3)n2)cc1 [Compound I-3] | 30 |  |  | 0.67 | 150 |  |  |  |
